Measurements as given in patent US20220111055A1, “MODIFIED HYDROPHOBIC EXCIPIENT AND PREPARATION METHOD THEREOF” (ZHEJIANG ZHIDA PHARMACEUTICAL CO., LTD., priority 2019, published 2022).

Assay: Solubility of paclitaxel in olive oil, castor oil and hydrophobic excipients (crystal formation in dried sample)
Format: physicochemical
Conditions: for solubility of paclitaxel (crystal formation in the dried sample): 0.5 ml paclitaxel chloroform solution (10 mg/ml), volatilized overnight
Experimental: The specific experimental method was as follows. […] The chloroform solution was mixed with 0.5 ml of chloroform, from which 0.5 ml of diluent was taken and two-fold serial dilution was performed by using chloroform. Then 0.5 ml of a chloroform solution of paclitaxel (10 mg/ml) was added to the above-mentioned sample after the two-fold serial dilution, and then left in a hood to be naturally volatilized overnight. Crystal formation in the dried sample was observed and recorded.

CCCCCCCC/C=C\CCCCCCCCNC(=O)CC[C@@H](C)[C@H]1CC[C@H]2[C@@H]3[C@H](OC(=O)CNC(=O)[C@H](CCCCNC(=O)OC(C)(C)C)NC(=O)OCC4c5ccccc5-c5ccccc54)C[C@@H]4C[C@H](OC(=O)CNC(=O)[C@H](CCCCNC(=O)OC(C)(C)C)NC(=O)OCC5c6ccccc6-c6ccccc65)CC[C@]4(C)[C@H]3C[C@H](OC(=O)CNC(=O)[C@H](CCCCNC(=O)OC(C)(C)C)NC(=O)OCC3c4ccccc4-c4ccccc43)[C@]12C [Example 4]
solubility of paclitaxel (crystal formation in the dried sample) (0.98 mg hydrophobic excipient): +
solubility of paclitaxel (crystal formation in the dried sample) (1.95 mg hydrophobic excipient): +
solubility of paclitaxel (crystal formation in the dried sample) (3.90 mg hydrophobic excipient): +
solubility of paclitaxel (crystal formation in the dried sample) (7.81 mg hydrophobic excipient): +/−
solubility of paclitaxel (crystal formation in the dried sample) (15.65 mg hydrophobic excipient): −
solubility of paclitaxel (crystal formation in the dried sample) (31.30 mg hydrophobic excipient): −
solubility of paclitaxel (crystal formation in the dried sample) (62.50 mg hydrophobic excipient): −
solubility of paclitaxel (crystal formation in the dried sample) (125.00 mg hydrophobic excipient): −
solubility of paclitaxel (crystal formation in the dried sample) (250.00 mg hydrophobic excipient): −
solubility of paclitaxel in the excipient, comparison in words (compared with olive oil and castor oil, from Table 1): greater than that in olive oil and castor oil
